Measurements: US8192962B2, “Processes for detecting toxic substances” (Daikin Industries, Ltd., priority 2001, dated 2012)

System: Transport facilitation protein genes
Test: DNA chip mRNA expression in yeast, transport facilitation protein genes (Table 5)
Format: cell-based, Saccharomyces cerevisiae S288C
Outline: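 In this screen, yeast in logarithmic growth are challenged for two hours with a toxic substance at a non-lethal inhibitory concentration. Their mRNA, converted to Cy3- or Cy5-labeled cDNA, hybridizes at 65° C. to a chip spanning every yeast gene, and expression is expressed as a ratio to untreated cells.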

Measured: The level of expressed mRNA in the presence of chemical substance/The level of expressed mRNA in the absence of chemical substance

COc1cc(CNC(=O)CCCCC=CC(C)C)ccc1O [(12), 8-methyl-N-vanillyl-6-nonenamide]
0.8: yeast gene YBR068C | yeast gene YDL210W | yeast gene YDR039C | yeast gene YGR082W | yeast gene YGR096W
0.9: yeast gene YBL030C | yeast gene YBR127C | yeast gene YBR207W | yeast gene YBR295W | yeast gene YDL128W | yeast gene YDR387C | yeast gene YDR497C | yeast gene YEL027W | yeast gene YFL011W | yeast gene YFL050C | yeast gene YFL055W | yeast gene YGL006W | yeast gene YGR055W
1.2: yeast gene YDL198C | yeast gene YFL054C | yeast gene YGR197C
0.7: yeast gene YCR037C | yeast gene YDR038C | yeast gene YDR086C | yeast gene YER119C | yeast gene YGL255W | yeast gene YGR191W
1.4: yeast gene YDR345C
0.5: yeast gene YGR065C
0.6: yeast gene YGR138C | yeast gene YGR224W | yeast gene YGR260W
1.0: yeast gene YBL099W | yeast gene YBR132C | yeast gene YBR293W | yeast gene YBR294W | yeast gene YCR024C-A | yeast gene YDL245C | yeast gene YDR270W | yeast gene YDR342C | yeast gene YDR343C
1.7: yeast gene YEL065W | yeast gene YER053C
1.3: yeast gene YBR052C | yeast gene YCL038C | yeast gene YCR098C
2.4: yeast gene YGL008C
1.1: yeast gene YBR298C | yeast gene YCL025C | yeast gene YDR298C | yeast gene YEL063C | yeast gene YFL041W | yeast gene YGL104C | yeast gene YGL167C
